# According to patent publication US20060241114A1, “Derivatives of azasugars as anticancer agents” (priority 2003, published 2006):
# Experiments:
# [1] = system: MCF7 (breast adenocarcinoma); experiment: In vitro growth inhibition screen (sulphorhodamine B), MCF7; type: cell-based, human; conditions: MCF7 cells, incubated for 48 hours, sulphorhodamine B dye; read-out: GI50 (concentration which inhibits the cell growth by 50%), MCF7 Breast adenocarcinoma
# Description: (§1) Each agent was tested over a broad concentration range (ten-fold dilutions starting from ≧100 μM to 10 nM) against 6 human cancer cell lines which was comprised of different tumor types. These are DU145 (prostate carcinoma), HT29 (colorectal adenocarcinoma), LOX (melanoma), MCF7 (breast adenocarcinoma), MCF7ADR (adriamycin resistant breast adenocarcinoma), and U251 (human glioblastoma). A standard compound doxorubicin was tested in each assay as a positive control. The cells were maintained in growing condition in RPMI 1640 medium containing 10% fetal calf serum and incubated at 37° C. under 5% CO2 atmosphere. All cell lines were inoculated onto a series of standard 96-well microtitre plate on day zero, followed by twenty four-hour incubation in the absence of test compound. The inoculation densities in the screen were as per Monk et al., (1991) J. Natl. Cancer Inst., 83, 757-766. All NCEs were dissolved in DMSO and diluted further in culture medium. An aliquot of each dilution was added to the growing cells in 96 well plates and incubated for 48 hours. After incubation, the assay was terminated by adding 50 μL of trichloroacetic acid (TCA) and incubating at 4° C. for 30 min. The precipitated cells were washed and stained with sulphorhodamine B dye for 30 min and the excess dye was washed off with acetic acid. Adsorbed dye was solubilised in Tris base (alkaline pH) and quantitated by measuring the OD at […] in ELISA READER. GI50 (concentration which inhibits the cell growth by 50%) was calculated according to Boyd and Paull, (1995) Drug Dev. Res., 34, 91-109.
# [2] = system: DU145 (prostate carcinoma); experiment: In vitro growth inhibition screen (sulphorhodamine B), DU145; type: cell-based, human; conditions: DU145 cells, incubated for 48 hours, sulphorhodamine B dye; read-out: GI50 (concentration which inhibits the cell growth by 50%), DU145 Prostate carcinoma
# Description: as §1
# [3] = system: U251 (human glioblastoma); experiment: In vitro growth inhibition screen (sulphorhodamine B), U251; type: cell-based; conditions: U251 cells, incubated for 48 hours, sulphorhodamine B dye; read-out: GI50 (concentration which inhibits the cell growth by 50%), U251 Human glioblastoma astrocytoma
# Description: as §1
# [4] = system: HT29 (colorectal adenocarcinoma); experiment: In vitro growth inhibition screen (sulphorhodamine B), HT29; type: cell-based, human; conditions: HT29 cells, incubated for 48 hours, sulphorhodamine B dye; read-out: GI50 (concentration which inhibits the cell growth by 50%), HT29 Colorectal adenocarcinoma
# Description: as §1
# LOX (melanoma) = experiment: In vitro growth inhibition screen (sulphorhodamine B), LOX; type: cell-based, human; conditions: LOX cells, incubated for 48 hours, sulphorhodamine B dye; read-out: GI50 (concentration which inhibits the cell growth by 50%), LOX Melanoma
# Description: as §1
# [5] = system: MCF7ADR (adriamycin resistant breast adenocarcinoma); experiment: In vitro growth inhibition screen (sulphorhodamine B), MCF7ADR; type: cell-based, human; conditions: MCF7ADR cells, incubated for 48 hours, sulphorhodamine B dye; read-out: GI50 (concentration which inhibits the cell growth by 50%), MCF7ADR Adriamycin Resistant Breast adenocarcinoma
# Description: as §1
GI50 [1] [µM],GI50 [2] [µM],GI50 [3] [µM],GI50 [4] [µM],GI50 (LOX (melanoma)) [µM],GI50 [5] [µM],Compound
9.9,43.7,10.3,6.8,13.6,16,"2,3,4-Tri-O-benzyl-6-(trifluoromethylacetamido)-N-propyl-D-gluco-δ-lactam [Compound No. 51]"
> 380,98.4,> 380,35,281,> 380,"2,3,4-Tri-O-benzyl-6-N-{[isopropyl]aminocarbonylamino}-1,5-dideoxy-1,5-imino-N-propyl glucitol [Compound No. 38]"
433,50.1,82.3,47.2,67.4,110,"CCCN1C(=O)[C@H](OCc2ccccc2)[C@@H](OCc2ccccc2)[C@H](OCc2ccccc2)[C@H]1CNC(=O)Nc1ccc(C)cc1 [Compound No. 6, 2,3,4-Tri-O-benzyl-6-N-{[p-tolyl]aminocarbonylamino}-N-propyl-D-gluco-δ-lactam]"

# More lines, now with the values behind:
Compound,GI50 [1] [µM],GI50 [2] [µM],GI50 [3] [µM],GI50 [4] [µM],GI50 (LOX (melanoma)) [µM],GI50 [5] [µM]
"2,3,4-Tri-O-benzyl-6-N-[3-{2-iminocarbonyl aminoethyl)-indolyl]-N-propyl-D-gluco-δ-lactam [Compound No. 78]",9.2,57.3,4.3,33.6,45.1,29.8
"6-N-{2-[1,5-Dideoxy-1,5-imino-glucit-6-ol]acetyl}-N-propyl-D-gluco-δ-lactam [Compound No. 67]",107,81.6,91.5,106,67.6,75.4
"C=CCN1C(=O)[C@H](OCc2ccccc2)[C@@H](OCc2ccccc2)[C@H](OCc2ccccc2)[C@H]1COS(=O)(=O)c1ccc(C)cc1 [Compound No. 1, N-Allyl-6-O-(p-toluenesulphonyl)-2,3,4-tri-O-benzyl-D-gluco-δ-lactam]",378,364,> 624,203,> 624,> 624
"CCCN1C(=O)[C@H](OCc2ccccc2)[C@@H](OCc2ccccc2)[C@H](OCc2ccccc2)[C@H]1CNC(=S)Nc1ccc2ccccc2c1 [Compound No. 2, 2,3,4-Tri-O-benzyl-6-N-{[2-naphthyl]aminothiocarbonylamino}-N-propyl-D-gluco-δ-lactam]",175,151,172,137,40.9,229
"CCCN1C(=O)C(OCc2ccccc2)C(OCc2ccccc2)C(OCc2ccccc2)C1CNC(=O)Nc1ccc(Cl)cc1 [Compound No. 3, 2,3,4-Tri-O-benzyl-6-N-{[4-chlorophenyl]aminocarbonylamino}-N-propyl-D-gluco-δ-lactam]",0.8,2,1.1,6.1,2.1,8.2
"CCCN1C(=O)C(OCc2ccccc2)C(OCc2ccccc2)C(OCc2ccccc2)C1CNC(=O)Nc1ccc(OC)cc1 [Compound No. 4, 2,3,4-Tri-O-benzyl-6-N-{[p-methoxyphenyl]aminocarbonylamino}-N-propyl-D-gluco-δ-lactam]",13.6,116,16.8,49.4,112,115
"CCCN1C(=O)C(OCc2ccccc2)C(OCc2ccccc2)C(OCc2ccccc2)C1CNC(=O)Nc1ccc([N+](=O)[O-])cc1 [Compound No. 5, 2,3,4-Tri-O-benzyl-6-N-{[p-nitrophenyl]aminocarbonylamino}-N-propyl-D-gluco-δ-lactam]",11.4,29.6,46.9,14.6,10.4,33.9
